Article PMC5820181 (Biochemistry, 2018)

Legend:
[1] = target: T1, LipDH-mCherry; yeast lipoamide dehydrogenase (Saccharomyces cerevisiae, UniProt P09624); assay: UV-Vis absorbance of purified protein; format: binding; settings: 50 mM phosphate pH 7.5, 1 mM EDTA; bound as purified
T1 sequence (P09624 22-499): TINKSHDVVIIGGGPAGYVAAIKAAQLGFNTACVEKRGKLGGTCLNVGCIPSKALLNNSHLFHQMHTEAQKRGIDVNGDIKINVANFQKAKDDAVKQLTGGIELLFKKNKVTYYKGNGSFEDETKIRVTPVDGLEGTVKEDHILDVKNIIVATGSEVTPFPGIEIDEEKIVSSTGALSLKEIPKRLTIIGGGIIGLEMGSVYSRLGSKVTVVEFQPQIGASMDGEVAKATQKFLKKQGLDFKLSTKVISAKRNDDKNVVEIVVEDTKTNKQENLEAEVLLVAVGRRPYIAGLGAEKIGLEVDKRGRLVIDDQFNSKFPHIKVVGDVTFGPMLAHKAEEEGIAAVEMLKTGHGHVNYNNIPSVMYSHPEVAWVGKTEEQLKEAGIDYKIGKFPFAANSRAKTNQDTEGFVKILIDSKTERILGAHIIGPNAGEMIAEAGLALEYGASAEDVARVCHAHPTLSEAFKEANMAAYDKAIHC

[2] = target: EcTrxR-mCherry (TrxR-mCherry); E. coli thioredoxin reductase (Escherichia coli, UniProt P0A9P4); assay: UV-Vis absorbance of purified protein; format: binding; settings: 50 mM phosphate pH 7.5, 1 mM EDTA; bound as purified
[3] = target: T1, LipDH-mCherry; yeast lipoamide dehydrogenase; assay: quenching of flavin fluorescence; format: biochemical; settings: 1 uM probe, 100 uM NADPH; poor substrate

EcTrxR-mCherry (TrxR-mCherry); E. coli thioredoxin reductase, sequence (P0A9P4 2-321): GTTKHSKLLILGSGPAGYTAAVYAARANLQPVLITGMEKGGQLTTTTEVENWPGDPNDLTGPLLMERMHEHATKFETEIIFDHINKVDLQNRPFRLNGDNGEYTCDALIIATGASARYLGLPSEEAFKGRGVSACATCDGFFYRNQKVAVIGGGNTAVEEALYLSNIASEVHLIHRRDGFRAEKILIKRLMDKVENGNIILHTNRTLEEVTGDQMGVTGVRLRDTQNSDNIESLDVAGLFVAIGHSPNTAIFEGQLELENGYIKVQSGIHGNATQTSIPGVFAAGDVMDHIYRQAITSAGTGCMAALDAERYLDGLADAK

SMILES | UV-Vis absorbance of purified protein [1] | UV-Vis absorbance of purified protein [2] | quenching of flavin fluorescence (456/520 nm) on reduction [3]
Cc1cc2nc3c(=O)[nH]c(=O)nc-3n(C[C@H](O)[C@H](O)[C@H](O)COP(=O)(O)OP(=O)(O)OC[C@H]3O[C@@H](n4cnc5c(N)ncnc54)[C@H](O)[C@@H]3O)c2cc1C [FAD] | purified construct contained the expected complement of flavin and mCherry absorbance contributions | found to contain the expected complement of flavin and mCherry | 
NC(=O)C1=CN([C@@H]2O[C@H](COP(=O)(O)OP(=O)(O)OC[C@H]3O[C@@H](n4cnc5c(N)ncnc54)[C@H](OP(=O)(O)O)[C@@H]3O)[C@@H](O)[C@H]2O)C=CC1 [NADPH] |  |  | the probe responds slowly to this pyridine nucleotide
